In ChEMBL document CHEMBL1201862, “PubChem BioAssay data set” (2004):
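Cultured in 96-well plates, cells were exposed to test compound for 48 hours across five concentrations. Abbreviation: GI50, concentration required for 50% inhibition of growth.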 Activity calls are given as the source filed them. Rule as the data show it: active = GI50 up to about 1.1 µM and inactive = higher.

Experiments:
Assay in all cases: inhibition of tumour cell growth, NCI panel, 48 h
[1] = tested on: ACHN
[2] = tested on: HT-29
[3] = tested on: IGROV-1
[4] = tested on: K562
[5] = tested on: M14
[6] = tested on: MOLT-4
[7] = tested on: NCI-H226
[8] = tested on: OVCAR-4
[9] = tested on: PC-3
[10] = tested on: SK-MEL-5
[11] = tested on: SW-620
[12] = tested on: U-251
[13] = tested on: UACC-257
[14] = tested on: HOP-62
[15] = tested on: MDA-MB-435
[16] = tested on: SK-OV-3
[17] = tested on: UACC-62

Row | SMILES | GI50 [1] | GI50 [2] | GI50 [3] | GI50 [4] | GI50 [5] | GI50 [6] | GI50 [7] | GI50 [8] | GI50 [9] | GI50 [10] | GI50 [11] | GI50 [12] | GI50 [13] | GI50 [14] | GI50 [15] | GI50 [16] | GI50 [17]
1 | CCNc1cc2c(cc1O)CC[C@@H]1[C@@H]2CC[C@]2(C)[C@@H](O)CC[C@@H]12 | 8.83 µM (inactive) | 15.8 µM (inactive) | 15.5 µM (inactive) | 0.711 µM (active) | 1.78 µM (inactive) | 3.13 µM (inactive) | 2.82 µM (inactive) | 8.26 µM (inactive) | 9.91 µM (inactive) | 0.394 µM (active) | 2.82 µM (inactive) | 1.61 µM (inactive) | 11.8 µM (inactive) |  |  |  | 
2 | Cc1cc(Oc2cnc(=O)[nH]c2)cs1 | > 100 µM (inactive) | > 100 µM (inactive) | > 100 µM (inactive) | > 100 µM (inactive) | > 100 µM (inactive) | > 100 µM (inactive) | > 100 µM (inactive) |  | > 100 µM (inactive) | > 100 µM (inactive) | > 100 µM (inactive) | > 100 µM (inactive) | > 100 µM (inactive) | > 100 µM (inactive) | > 100 µM (inactive) | > 100 µM (inactive) | > 100 µM (inactive)
3 | Oc1cc(-c2ccc(Cl)cc2)cn2c1nc1ccccc12 |  | > 100 µM (inactive) | 9.55 µM (inactive) | 2.3 µM (inactive) | > 100 µM (inactive) |  | > 100 µM (inactive) | > 100 µM (inactive) | > 100 µM (inactive) |  | 6.46 µM (inactive) | 6.59 µM (inactive) | > 100 µM (inactive) | 31.3 µM (inactive) | 2.2 µM (inactive) | > 100 µM (inactive) | 29.4 µM (inactive)
4 | CC1(C)OP(=O)(O)C=C1Sc1ccc([N+](=O)[O-])cc1[N+](=O)[O-] | > 100 µM (inactive) | 45.7 µM (inactive) | > 100 µM (inactive) | > 100 µM (inactive) | > 100 µM (inactive) |  | > 100 µM (inactive) | > 100 µM (inactive) | > 100 µM (inactive) | > 100 µM (inactive) | > 100 µM (inactive) | > 100 µM (inactive) | > 100 µM (inactive) | > 100 µM (inactive) | > 100 µM (inactive) | > 100 µM (inactive) | > 100 µM (inactive)
5 | COc1ccc(-c2nc(SCC(=O)N/N=C/c3ccc([N+](=O)[O-])cc3)[nH]c2-c2ccc(OC)cc2)cc1 | 20.1 µM (inactive) | 8.41 µM (inactive) | 10.8 µM (inactive) | 7.45 µM (inactive) | 12.2 µM (inactive) | 7.66 µM (inactive) |  | 39.4 µM (inactive) | 6.49 µM (inactive) | 6.27 µM (inactive) | 12.6 µM (inactive) | 11.7 µM (inactive) | 16.4 µM (inactive) | 16.7 µM (inactive) | 3.24 µM (inactive) | 20.2 µM (inactive) | 7.01 µM (inactive)
6 | Cc1ccc(Nc2n[nH]c(=S)s2)cc1 | > 100 µM (inactive) | > 100 µM (inactive) |  | > 100 µM (inactive) | > 100 µM (inactive) | > 100 µM (inactive) | > 100 µM (inactive) |  | > 100 µM (inactive) | 99.1 µM (inactive) | > 100 µM (inactive) | > 100 µM (inactive) | > 100 µM (inactive) | > 100 µM (inactive) | 42.4 µM (inactive) | > 100 µM (inactive) | > 100 µM (inactive)
7 | CC(=O)Nc1ccc2cc(C)c(O)nc2n1 | > 100 µM (inactive) | > 100 µM (inactive) | > 100 µM (inactive) | > 100 µM (inactive) | > 100 µM (inactive) | > 100 µM (inactive) |  | > 100 µM (inactive) | > 100 µM (inactive) | > 100 µM (inactive) | > 100 µM (inactive) | > 100 µM (inactive) | > 100 µM (inactive) |  | > 100 µM (inactive) | > 100 µM (inactive) | > 100 µM (inactive)
8 | CCC1CCN=C(Cn2cc(C)c(=O)[nH]c2=O)N1 (centres undefined) | > 100 µM (inactive) | > 100 µM (inactive) | > 100 µM (inactive) |  | > 100 µM (inactive) |  | > 100 µM (inactive) |  | > 100 µM (inactive) | > 100 µM (inactive) | > 100 µM (inactive) | > 100 µM (inactive) | > 100 µM (inactive) | > 100 µM (inactive) |  | > 100 µM (inactive) | > 100 µM (inactive)
9 | COc1cc(/C=C2/SC(c3ccccc3)N(c3ccccc3)C2=O)cc(OC)c1OC (centres undefined) | 84.3 µM (inactive) |  |  | 8.97 µM (inactive) | 49.9 µM (inactive) | 8.24 µM (inactive) | 80.4 µM (inactive) | 69.5 µM (inactive) |  | 12.1 µM (inactive) | > 100 µM (inactive) | 59.6 µM (inactive) | 61.8 µM (inactive) | 44.8 µM (inactive) | 33.4 µM (inactive) | 35.8 µM (inactive) | 24.4 µM (inactive)
10 | CC(=O)N1C(Nc2cccc3nc(C)ccc23)CCN1c1ccccc1 (centres undefined) | > 10 µM (inactive) | > 10 µM (inactive) | > 10 µM (inactive) | > 10 µM (inactive) | > 10 µM (inactive) | > 10 µM (inactive) | > 10 µM (inactive) | > 10 µM (inactive) | > 10 µM (inactive) | > 10 µM (inactive) | 5.73 µM (inactive) |  | > 10 µM (inactive) | > 10 µM (inactive) | > 10 µM (inactive) | > 10 µM (inactive) | 
11 | N#C/N=C1/c2ccccc2/C(=N/C#N)c2cc(CO)ccc21 | 24.7 µM (inactive) | 26.7 µM (inactive) | 29.4 µM (inactive) | 23.3 µM (inactive) | 48.2 µM (inactive) | 16.4 µM (inactive) | 37.8 µM (inactive) | 48.1 µM (inactive) | 33.7 µM (inactive) | 27 µM (inactive) | 25.6 µM (inactive) | 34.4 µM (inactive) | 26.6 µM (inactive) | 42.6 µM (inactive) | 27.4 µM (inactive) |  | 
12 | CCOC(=O)C1=C(C)N(Cc2ccc(Cl)cc2Cl)C2(O)C=CC(=O)C3C(=O)N(c4ccccc4)C(=O)C132 (centres undefined) | 1.71 µM (inactive) | 1.69 µM (inactive) | 1.78 µM (inactive) | 0.659 µM (active) | 3.27 µM (inactive) | 1.41 µM (inactive) | 1.54 µM (inactive) | 1.51 µM (inactive) | 1.5 µM (inactive) | 2.09 µM (inactive) | 1.32 µM (inactive) | 1.67 µM (inactive) | 2.2 µM (inactive) | 2.87 µM (inactive) | 1.81 µM (inactive) |  | 1.63 µM (inactive)
13 | CNc1ccc(Cl)cc1C(=O)N1CCC[C@H]1CO | > 100 µM (inactive) | > 100 µM (inactive) | > 84.7 µM (inactive) | > 100 µM (inactive) | > 100 µM (inactive) | > 100 µM (inactive) | > 96.4 µM (inactive) | > 100 µM (inactive) | > 100 µM (inactive) |  | > 100 µM (inactive) | > 100 µM (inactive) | > 100 µM (inactive) | > 100 µM (inactive) | > 100 µM (inactive) | > 100 µM (inactive) | > 100 µM (inactive)
14 | COCCN(C(=O)c1ccccc1)C1CCC2(SCCS2)c2[nH]c3ccccc3c21 (centres undefined) | 37.5 µM (inactive) | 49.4 µM (inactive) | 34.5 µM (inactive) | 15.9 µM (inactive) |  | 18.5 µM (inactive) | > 100 µM (inactive) |  | 20 µM (inactive) | 22.9 µM (inactive) | 33.3 µM (inactive) | 46.9 µM (inactive) | 59.2 µM (inactive) | > 100 µM (inactive) | 20.4 µM (inactive) |  | 
15 | CN(C(=O)c1ccc(Cl)cc1)C(=S)N1CCN(c2ccccc2)CC1 | > 100 µM (inactive) | 77.6 µM (inactive) | > 100 µM (inactive) | 42.1 µM (inactive) | > 100 µM (inactive) | 58.3 µM (inactive) | 47.5 µM (inactive) | > 100 µM (inactive) |  | 35.5 µM (inactive) | > 100 µM (inactive) | > 100 µM (inactive) | 71.4 µM (inactive) |  | > 100 µM (inactive) |  | 92.5 µM (inactive)
16 | CCCSc1ccc2[nH]c(N3C(=O)/C(=C/c4ccco4)N=C3c3ccccc3)cc2c1 | 38.8 µM (inactive) | 21.3 µM (inactive) | 40.1 µM (inactive) | 15.6 µM (inactive) | 21.6 µM (inactive) | 17.1 µM (inactive) |  |  | 21.3 µM (inactive) | 9.89 µM (inactive) | 20.8 µM (inactive) |  | 18.2 µM (inactive) | 40.7 µM (inactive) | 8.71 µM (inactive) |  | 23.3 µM (inactive)
17 | CCCCCCCC(=O)NS(=O)(=O)c1ccccc1 | > 100 µM (inactive) | > 100 µM (inactive) | > 100 µM (inactive) | > 100 µM (inactive) | 77.1 µM (inactive) | > 100 µM (inactive) |  | > 100 µM (inactive) | > 100 µM (inactive) | > 100 µM (inactive) | > 100 µM (inactive) | > 100 µM (inactive) |  | > 100 µM (inactive) | > 100 µM (inactive) | > 100 µM (inactive) | > 100 µM (inactive)
18 | CCN(CC)C(=S)SC [METHYLDIETHYL CARBAMODITHIOATE] | > 100 µM (inactive) | > 100 µM (inactive) | > 100 µM (inactive) | > 100 µM (inactive) | > 100 µM (inactive) | > 100 µM (inactive) | > 100 µM (inactive) |  | 52.5 µM (inactive) | > 100 µM (inactive) | > 100 µM (inactive) | > 100 µM (inactive) | > 100 µM (inactive) | > 100 µM (inactive) |  | > 100 µM (inactive) | > 100 µM (inactive)
